# Data taken from ChEMBL document CHEMBL5325403, “Benzenesulfonyl thiazoloimines as unique multitargeting antibacterial agents towards Enterococcus faecalis” (Eur J Med Chem, 2023).
# Test system: Staphylococcus aureus
# Test: Antibacterial activity against methicillin-resistant Staphylococcus aureus N315 assessed as inhibition of bacterial growth by continuous dilution method
# Format: functional
row,Structure (SMILES),MIC [µg/mL]
1,CCCCO/N=C(/CS(=O)(=O)c1ccc(NC(C)=O)cc1)c1nccs1,64
2,CCCCCCO/N=C(/CS(=O)(=O)c1ccc(NC(C)=O)cc1)c1nccs1,32
3,CC(=O)Nc1ccc(S(=O)(=O)C/C(=N/OCc2ccc(Cl)cc2)c2nccs2)cc1,32
4,CC(=O)Nc1ccc(S(=O)(=O)C/C(=N/OCC#N)c2nccs2)cc1,64
5,CC(=O)Nc1ccc(S(=O)(=O)C/C(=N/Nc2ccc(C(=O)O)cc2)c2nccs2)cc1,8
6,CC(=O)Nc1ccc(S(=O)(=O)/C(=C\c2ccc([N+](=O)[O-])cc2)C(=O)c2nccs2)cc1,128
7,N#CCO/N=C(/CS(=O)(=O)c1ccc(N)cc1)c1nccs1,64

# Test system: Acinetobacter baumannii
# Test: Antibacterial activity against Acinetobacter baumannii assessed as inhibition of bacterial growth by continuous dilution method
# Format: functional
row,Structure (SMILES),MIC [µg/mL]
1,CCCCO/N=C(/CS(=O)(=O)c1ccc(NC(C)=O)cc1)c1nccs1,128
2,CCCCCCO/N=C(/CS(=O)(=O)c1ccc(NC(C)=O)cc1)c1nccs1,128
3,CC(=O)Nc1ccc(S(=O)(=O)C/C(=N/OCc2ccc(Cl)cc2)c2nccs2)cc1,128
4,CC(=O)Nc1ccc(S(=O)(=O)C/C(=N/OCC#N)c2nccs2)cc1,256
5,CC(=O)Nc1ccc(S(=O)(=O)C/C(=N/Nc2ccc(C(=O)O)cc2)c2nccs2)cc1,64
6,CC(=O)Nc1ccc(S(=O)(=O)/C(=C\c2ccc([N+](=O)[O-])cc2)C(=O)c2nccs2)cc1,256
7,N#CCO/N=C(/CS(=O)(=O)c1ccc(N)cc1)c1nccs1,128

# Test system: Staphylococcus aureus
# Test: Antibacterial activity against Staphylococcus aureus ATCC 29213 assessed as inhibition of bacterial growth by continuous dilution method
# Format: functional
row,Structure (SMILES),MIC [µg/mL]
1,CCCCO/N=C(/CS(=O)(=O)c1ccc(NC(C)=O)cc1)c1nccs1,64
2,CCCCCCO/N=C(/CS(=O)(=O)c1ccc(NC(C)=O)cc1)c1nccs1,128
3,CC(=O)Nc1ccc(S(=O)(=O)C/C(=N/OCc2ccc(Cl)cc2)c2nccs2)cc1,64
4,CC(=O)Nc1ccc(S(=O)(=O)C/C(=N/OCC#N)c2nccs2)cc1,64
5,CC(=O)Nc1ccc(S(=O)(=O)C/C(=N/Nc2ccc(C(=O)O)cc2)c2nccs2)cc1,32
6,CC(=O)Nc1ccc(S(=O)(=O)/C(=C\c2ccc([N+](=O)[O-])cc2)C(=O)c2nccs2)cc1,256
7,N#CCO/N=C(/CS(=O)(=O)c1ccc(N)cc1)c1nccs1,64

# Test system: Escherichia coli
# Test: Antibacterial activity against Escherichia coli assessed as inhibition of bacterial growth by continuous dilution method
# Format: functional
row,Structure (SMILES),MIC [µg/mL]
1,CCCCO/N=C(/CS(=O)(=O)c1ccc(NC(C)=O)cc1)c1nccs1,32
2,CCCCCCO/N=C(/CS(=O)(=O)c1ccc(NC(C)=O)cc1)c1nccs1,32
3,CC(=O)Nc1ccc(S(=O)(=O)C/C(=N/OCc2ccc(Cl)cc2)c2nccs2)cc1,64
4,CC(=O)Nc1ccc(S(=O)(=O)C/C(=N/OCC#N)c2nccs2)cc1,32
5,CC(=O)Nc1ccc(S(=O)(=O)C/C(=N/Nc2ccc(C(=O)O)cc2)c2nccs2)cc1,64
6,CC(=O)Nc1ccc(S(=O)(=O)/C(=C\c2ccc([N+](=O)[O-])cc2)C(=O)c2nccs2)cc1,32
7,N#CCO/N=C(/CS(=O)(=O)c1ccc(N)cc1)c1nccs1,16

# Test system: Pseudomonas aeruginosa
# Test: Antibacterial activity against Pseudomonas aeruginosa assessed as inhibition of bacterial growth by continuous dilution method
# Format: functional
row,Structure (SMILES),MIC [µg/mL]
1,CCCCO/N=C(/CS(=O)(=O)c1ccc(NC(C)=O)cc1)c1nccs1,64
2,CCCCCCO/N=C(/CS(=O)(=O)c1ccc(NC(C)=O)cc1)c1nccs1,32
3,CC(=O)Nc1ccc(S(=O)(=O)C/C(=N/OCc2ccc(Cl)cc2)c2nccs2)cc1,64
4,CC(=O)Nc1ccc(S(=O)(=O)C/C(=N/OCC#N)c2nccs2)cc1,128
5,CC(=O)Nc1ccc(S(=O)(=O)C/C(=N/Nc2ccc(C(=O)O)cc2)c2nccs2)cc1,128
6,CC(=O)Nc1ccc(S(=O)(=O)/C(=C\c2ccc([N+](=O)[O-])cc2)C(=O)c2nccs2)cc1,64
7,N#CCO/N=C(/CS(=O)(=O)c1ccc(N)cc1)c1nccs1,64

# Test system: Pseudomonas aeruginosa
# Test: Antibacterial activity against Pseudomonas aeruginosa ATCC 27853 assessed as inhibition of bacterial growth by continuous dilution method
# Format: functional
row,Structure (SMILES),MIC [µg/mL]
1,CCCCO/N=C(/CS(=O)(=O)c1ccc(NC(C)=O)cc1)c1nccs1,64
2,CCCCCCO/N=C(/CS(=O)(=O)c1ccc(NC(C)=O)cc1)c1nccs1,32
3,CC(=O)Nc1ccc(S(=O)(=O)C/C(=N/OCc2ccc(Cl)cc2)c2nccs2)cc1,32
4,CC(=O)Nc1ccc(S(=O)(=O)C/C(=N/OCC#N)c2nccs2)cc1,64
5,CC(=O)Nc1ccc(S(=O)(=O)C/C(=N/Nc2ccc(C(=O)O)cc2)c2nccs2)cc1,32
6,CC(=O)Nc1ccc(S(=O)(=O)/C(=C\c2ccc([N+](=O)[O-])cc2)C(=O)c2nccs2)cc1,64
7,N#CCO/N=C(/CS(=O)(=O)c1ccc(N)cc1)c1nccs1,32

# Test system: Klebsiella pneumoniae
# Test: Antibacterial activity against Klebsiella pneumoniae assessed as inhibition of bacterial growth by continuous dilution method
# Format: functional
row,Structure (SMILES),MIC [µg/mL]
1,CCCCO/N=C(/CS(=O)(=O)c1ccc(NC(C)=O)cc1)c1nccs1,16
2,CCCCCCO/N=C(/CS(=O)(=O)c1ccc(NC(C)=O)cc1)c1nccs1,64
3,CC(=O)Nc1ccc(S(=O)(=O)C/C(=N/OCc2ccc(Cl)cc2)c2nccs2)cc1,32
4,CC(=O)Nc1ccc(S(=O)(=O)C/C(=N/OCC#N)c2nccs2)cc1,64
5,CC(=O)Nc1ccc(S(=O)(=O)C/C(=N/Nc2ccc(C(=O)O)cc2)c2nccs2)cc1,128
6,CC(=O)Nc1ccc(S(=O)(=O)/C(=C\c2ccc([N+](=O)[O-])cc2)C(=O)c2nccs2)cc1,128
7,N#CCO/N=C(/CS(=O)(=O)c1ccc(N)cc1)c1nccs1,64

# Test system: Enterococcus faecalis
# Test: Antibacterial activity against Enterococcus faecalis assessed as inhibition of bacterial growth by continuous dilution method
# Format: functional
row,Structure (SMILES),MIC [µg/mL]
1,CCCCO/N=C(/CS(=O)(=O)c1ccc(NC(C)=O)cc1)c1nccs1,64
2,CCCCCCO/N=C(/CS(=O)(=O)c1ccc(NC(C)=O)cc1)c1nccs1,32
3,CC(=O)Nc1ccc(S(=O)(=O)C/C(=N/OCc2ccc(Cl)cc2)c2nccs2)cc1,64
4,CC(=O)Nc1ccc(S(=O)(=O)C/C(=N/OCC#N)c2nccs2)cc1,64
5,CC(=O)Nc1ccc(S(=O)(=O)C/C(=N/Nc2ccc(C(=O)O)cc2)c2nccs2)cc1,16
6,CC(=O)Nc1ccc(S(=O)(=O)/C(=C\c2ccc([N+](=O)[O-])cc2)C(=O)c2nccs2)cc1,128
7,N#CCO/N=C(/CS(=O)(=O)c1ccc(N)cc1)c1nccs1,64

# Test system: Staphylococcus aureus
# Test: Antibacterial activity against Staphylococcus aureus assessed as inhibition of bacterial growth by continuous dilution method
# Format: functional
row,Structure (SMILES),MIC [µg/mL]
1,CCCCO/N=C(/CS(=O)(=O)c1ccc(NC(C)=O)cc1)c1nccs1,64
2,CCCCCCO/N=C(/CS(=O)(=O)c1ccc(NC(C)=O)cc1)c1nccs1,64
3,CC(=O)Nc1ccc(S(=O)(=O)C/C(=N/OCc2ccc(Cl)cc2)c2nccs2)cc1,128
4,CC(=O)Nc1ccc(S(=O)(=O)C/C(=N/OCC#N)c2nccs2)cc1,64
5,CC(=O)Nc1ccc(S(=O)(=O)C/C(=N/Nc2ccc(C(=O)O)cc2)c2nccs2)cc1,2
6,CC(=O)Nc1ccc(S(=O)(=O)/C(=C\c2ccc([N+](=O)[O-])cc2)C(=O)c2nccs2)cc1,256
7,N#CCO/N=C(/CS(=O)(=O)c1ccc(N)cc1)c1nccs1,128

# Test system: Staphylococcus aureus
# Test: Antibacterial activity against Staphylococcus aureus ATCC 25923 assessed as inhibition of bacterial growth by continuous dilution method
# Format: functional
row,Structure (SMILES),MIC [µg/mL]
1,CCCCO/N=C(/CS(=O)(=O)c1ccc(NC(C)=O)cc1)c1nccs1,128
2,CCCCCCO/N=C(/CS(=O)(=O)c1ccc(NC(C)=O)cc1)c1nccs1,64
3,CC(=O)Nc1ccc(S(=O)(=O)C/C(=N/OCc2ccc(Cl)cc2)c2nccs2)cc1,64
4,CC(=O)Nc1ccc(S(=O)(=O)C/C(=N/OCC#N)c2nccs2)cc1,128
5,CC(=O)Nc1ccc(S(=O)(=O)C/C(=N/Nc2ccc(C(=O)O)cc2)c2nccs2)cc1,32
6,CC(=O)Nc1ccc(S(=O)(=O)/C(=C\c2ccc([N+](=O)[O-])cc2)C(=O)c2nccs2)cc1,256
7,N#CCO/N=C(/CS(=O)(=O)c1ccc(N)cc1)c1nccs1,64

# Test system: Escherichia coli
# Test: Antibacterial activity against Escherichia coli ATCC 25922 assessed as inhibition of bacterial growth by continuous dilution method
# Format: functional
row,Structure (SMILES),MIC [µg/mL]
1,CCCCO/N=C(/CS(=O)(=O)c1ccc(NC(C)=O)cc1)c1nccs1,16
2,CCCCCCO/N=C(/CS(=O)(=O)c1ccc(NC(C)=O)cc1)c1nccs1,8
3,CC(=O)Nc1ccc(S(=O)(=O)C/C(=N/OCc2ccc(Cl)cc2)c2nccs2)cc1,8
4,CC(=O)Nc1ccc(S(=O)(=O)C/C(=N/OCC#N)c2nccs2)cc1,32
5,CC(=O)Nc1ccc(S(=O)(=O)C/C(=N/Nc2ccc(C(=O)O)cc2)c2nccs2)cc1,32
6,CC(=O)Nc1ccc(S(=O)(=O)/C(=C\c2ccc([N+](=O)[O-])cc2)C(=O)c2nccs2)cc1,64
7,N#CCO/N=C(/CS(=O)(=O)c1ccc(N)cc1)c1nccs1,8
